Active and inactive are the calls of the source. The rule behind the calls is not given here.
Legend:
CDK8/Cyclin C = CDK8/Cyclin C (Homo sapiens, UniProt P49336); experiment: Inhibition of kinase tracer 236 binding to His tagged recombinant human CDK8/cyclin C incubated for 60 min FRET based LanthaScreen Eu-Kinase binding assay; format: protein-complex assay
[1] = Inhibition of NF kappa B dependent CDK8/CDK19 in HEK293 cell incubated for 3 hrs in presence of TNF-alpha by Spectra max microtitre plate reader; format: cell-based; conditions: Homo sapiens, HEK293, 3 h
[2] = Inhibition of CDK8/CDK19 in MV4-11 cells and measured after 7 days by Spectra max iD5 microplate reader; format: cell-based, Homo sapiens
HEK293 [3] = experiment: Downregulation of CDK8/19 in HEK293 cells assessed as reversal of mRNA expression level in MYC gene at 1 uM for 3 hr pretreatment and measured after 3 hr post wash-off by qt-PCR analysis; format: functional, cell-based; conditions: Homo sapiens, time 6.0 hrs
[4] = target: T1, CDK8/Cyclin C (Homo sapiens) (UniProt P49336+P24863); experiment: Binding affinity to kinase tracer 236 binding to His tagged recombinant human CDK8/cyclinC assessed as rate constant (kon) by TR FRET based assay; format: protein-complex assay
[5] = target: T2, Cyclin-C/Cyclin-dependent kinase 19 (Homo sapiens) (UniProt Q9BWU1+P24863); experiment: Binding affinity to recombinant human CDK19/cyclinC assessed as rate constant (kon) by TR FRET based assay; format: protein-complex assay
[6] = target: T1, CDK8/Cyclin C (Homo sapiens); experiment: Binding affinity to kinase tracer 236 binding to His tagged recombinant human CDK8/cyclinC assessed as rate constant (koff) by TR FRET based assay; format: protein-complex assay
[7] = target: T2, Cyclin-C/Cyclin-dependent kinase 19 (Homo sapiens); experiment: Binding affinity to recombinant human CDK19/cyclinC assessed as rate constant (koff) by TR FRET based assay; format: protein-complex assay
[8] = target: T1, CDK8/Cyclin C (Homo sapiens); experiment: Binding affinity to kinase tracer 236 binding to His tagged recombinant human CDK8/cyclinC assessed as mean residence time by TR FRET based assay; format: protein-complex assay
[9] = target: T2, Cyclin-C/Cyclin-dependent kinase 19 (Homo sapiens); experiment: Binding affinity to recombinant human CDK19/cyclinC assessed as mean residence time by TR FRET based assay; format: protein-complex assay
[10] = target: T1, CDK8/Cyclin C (Homo sapiens); experiment: Binding affinity to kinase tracer 236 binding to His tagged recombinant human CDK8/cyclinC assessed as half life by TR FRET based assay; format: protein-complex assay
[11] = target: T2, Cyclin-C/Cyclin-dependent kinase 19 (Homo sapiens); experiment: Binding affinity to recombinant human CDK19/cyclinC assessed as half life by TR FRET based assay; format: protein-complex assay
[12] = Metabolic stability in human hepatocyte assessed as intrinsic clearance at 2 uM measured per 10^6 by LC-MS/MS analysis; format: ADME, cell-based; conditions: hepatocytes
HEK293 [13] = experiment: Downregulation of CDK8/19 in HEK293 cells assessed as reversal of mRNA expression level in KCTD12 gene at 1 uM for 3 hr pretreatment and measured after 3 hr post wash-off by qt-PCR analysis; format: functional, cell-based; conditions: Homo sapiens, time 6.0 hrs

CDK8/Cyclin C, sequence (P49336 whole entry): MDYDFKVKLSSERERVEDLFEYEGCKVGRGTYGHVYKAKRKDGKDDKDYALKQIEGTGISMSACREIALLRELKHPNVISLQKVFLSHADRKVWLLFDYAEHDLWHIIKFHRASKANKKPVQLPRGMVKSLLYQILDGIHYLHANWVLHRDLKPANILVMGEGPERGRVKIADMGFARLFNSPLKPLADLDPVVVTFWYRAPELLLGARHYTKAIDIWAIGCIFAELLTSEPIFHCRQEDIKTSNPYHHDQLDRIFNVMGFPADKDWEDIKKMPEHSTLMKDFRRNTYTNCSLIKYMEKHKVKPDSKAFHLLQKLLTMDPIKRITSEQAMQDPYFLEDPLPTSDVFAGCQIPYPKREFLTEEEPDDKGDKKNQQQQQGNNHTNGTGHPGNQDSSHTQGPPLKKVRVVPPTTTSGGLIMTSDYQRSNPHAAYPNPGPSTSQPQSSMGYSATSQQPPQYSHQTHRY
CDK8/Cyclin C, sequence (P24863 whole entry, further chain): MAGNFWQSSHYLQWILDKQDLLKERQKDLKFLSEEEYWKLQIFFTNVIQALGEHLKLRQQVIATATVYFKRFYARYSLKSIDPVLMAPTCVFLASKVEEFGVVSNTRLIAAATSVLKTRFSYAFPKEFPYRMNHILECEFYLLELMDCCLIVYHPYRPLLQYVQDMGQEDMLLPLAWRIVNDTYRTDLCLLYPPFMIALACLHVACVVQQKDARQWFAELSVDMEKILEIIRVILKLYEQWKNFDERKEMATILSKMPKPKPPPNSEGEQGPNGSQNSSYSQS

Row | SMILES | IC50 (CDK8/Cyclin C) [nM] | IC50 [1] [nM] | IC50 [2] [nM] | further results
1 | Ic1ccc2nccc(NCCc3ccccc3)c2c1 | 212 | > 5000 | – | –
2 | Brc1ccc2nccc(NCCc3ccccc3)c2c1 | 183 | > 5000 | – | –
3 | CNC(=O)c1ccc2nccc(NCCc3ccccc3)c2c1 | > 1000 | > 5000 | – | –
4 | Nc1ccc2nccc(NCCc3ccccc3)c2c1 | > 1000 | > 5000 | – | –
5 | c1ccc(CCNc2ccnc3ccccc23)cc1 | > 1000 | > 5000 | – | –
6 | FC(F)(F)c1ccc2nccc(NCCc3ccccc3)c2c1 | 356 | > 5000 | – | –
7 | CN1CCN(C(=O)c2ccc3cc(CCNc4ncnc5ccc(C#N)cc45)ccc3c2)CC1 [SENEXIN B] | – | – | – | Activity (HEK293 [3]): inactive; K [4]: 1.65 10^6/M/s; K [5]: 2.13 10^6/M/s; K [6]: 0.00325 s⁻¹; K [7]: 0.00628 s⁻¹; MRT [8]: 5.13 min; MRT [9]: 2.65 min; T1/2 [10]: 3.55 min; T1/2 [11]: 1.84 min; CLH [12]: 0.0198 mL/min; Activity (HEK293 [13]): inactive
8 | NC(=O)c1ccc2nccc(NCCc3ccccc3)c2c1 | > 1000 | > 5000 | – | –
9 | Clc1ccc2nccc(NCCc3ccccc3)c2c1 | 44 | > 5000 | – | –

Further lines, with some results ahead:

Row | IC50 (CDK8/Cyclin C) [nM] | IC50 [1] [nM] | IC50 [2] [nM] | SMILES | further results
10 | 9.3 | 208 | 173 | CN(CCCNC(=O)OC(C)(C)C)C(=O)c1ccc2cc(CCNc3ccnc4ccc(C#N)cc34)ccc2c1 | –
11 | 8.1 | 81 | 167 | CC(C)(C)OC(=O)NCCCN1CCN(C(=O)c2ccc3cc(CCNc4ccnc5ccc(C#N)cc45)ccc3c2)CC1 | –
12 | 5.8 | 160 | 222 | N#Cc1ccc2nccc(NCCc3ccc4cc(C(=O)N5CC[S+]([O-])CC5)ccc4c3)c2c1 | –
13 | 35 | 349 | 994 | N#Cc1ccc2ncnc(NCCc3ccccc3)c2c1 | –
14 | 4.6 | 244 | 271 | N#Cc1ccc2nccc(NCCc3ccc4cc(C(=O)N5CCS(=N)(=O)CC5)ccc4c3)c2c1 | –
15 | 9.2 | 118 | 297 | CN(CCCN)C(=O)c1ccc2cc(CCNc3ccnc4ccc(C#N)cc34)ccc2c1 | –
16 | 6.5 | 870 | 305 | N#Cc1ccc2nccc(NCCc3ccc4cc(C(=O)N5CCN(CCCN)CC5)ccc4c3)c2c1 | –
17 | 12 | 184 | 297 | CC(=O)N1CCN(C(=O)c2ccc3cc(CCNc4ccnc5ccc(C#N)cc45)ccc3c2)CC1 | –
18 | 9.1 | 138 | 93 | N#Cc1ccc2nccc(NCCc3ccc4cc(C(=O)N5CCSCC5)ccc4c3)c2c1 | –
19 | 19 | 137 | 209 | CC(C)(C)OC(=O)N1CCN(C(=O)c2ccc3cc(CCNc4ccnc5ccc(C#N)cc45)ccc3c2)CC1 | –

— ChEMBL document CHEMBL5046270, “A Selective and Orally Bioavailable Quinoline-6-Carbonitrile-Based Inhibitor of CDK8/19 Mediator Kinase with Tumor-Enriched Pharmacokinetics” (J Med Chem, 2022)
